# Where two headings read alike, the source gives them in different places.
# Tests used:
# [1] = test system: A/WSN/33; test: In vitro inhibition assay in BEAS2B cells, virus copies by qRT-PCR; assay type: cell-based, Influenza A virus
# [2] = test system: A/WSN/33; assay type: cell-based, Influenza A virus
# [3] = test system: A/WSN/33; test: Mouse infection, lung M gene copy number by qPCR; assay type: in vivo, BALB/c female mice; details: prophylactic, NSC 95397 […], KN-93 10 mg/kg by gavage, lungs 48 h after infection
# [4] = test system: A/CA/04/09; test: Mouse infection, lung infectious virus titer (TCID50 on MDCK cells); assay type: in vivo, BALB/c female mice; details: NSC 95397 […], KN-93 10 mg/kg; for lung infectious virus (TCID50) vs control: prophylactic
# [5] = test system: CAMKIIB gene expression; assay type: in vivo, mice; details: 10 mg/kg; 24 h and 48 h post-treatment
# [6] = test system: BEAS2B cells
# [7] = mouse, in vivo
# [8] = test system: A/WSN/33; details: previously shown (literature); cited from earlier work
# [9] = test system: SLC22A8 gene; assay type: cell-based, human; details: A549 cells; varying concentrations; 24 and 48 h
# [10] = test system: A/WSN/33; test: Inhibition assay in A549 cells (qRT-PCR copy number, NP staining); assay type: cell-based, Influenza A virus; details: A549 cells treated prophylactically or therapeutically, varying concentrations
# [11] = test system: A/New Calcdonia/20/90; test: as above; assay type: cell-based, Influenza A virus; details: A549 cells treated prophylactically or therapeutically, varying concentrations
# [12] = test system: SLC22A8 gene; set-up: species or system BALB/c mice; details: mouse, in vivo
# [13] = test system: A/New Calcdonia/20/90; test: Influenza replication in lungs of mice (qRT-PCR, TCID50); assay type: in vivo, BALB/c mice; details: mice treated with 10 or 200 mg/kg
# Protocol: (§1) Animals. BALB/c female mice (6-8 week-old) were obtained from NCI. All experiments and procedures were Institutional Animal Care and Use Committee (IACUC) approved by the IACUC of UGA. The animals were kept alone in cages. They were allowed free access to water and food both before and during the experiments. All experiments were performed with 5 mice per group and repeated independently at least twice.
# (§2) Drug treatment and infection. Probenecid was dissolved in PBS and injected intraperitoneally at final doses of 10 and 200 mg/kg body weight (about 0.2 ml per animal). Similar studies were done using the same doses but delivering by gavage. […] The treatments were 24 h or 48 h before infection. Prior to infection, mice were anesthetized with Avertin and infected by intranasal instillation with 50 μl of PBS containing 100 PFU of A/WSN/33 or A/New Calcdonia/20/90 influenza virus. The lungs of the mice were collected at 48 hip for qRT-PCR and TCID50. In some studies, Probenecid was administered at 48 h prior to influenza virus infection by tail vein injection (200 ul) where the following groups were evaluated (5 mice/group): Group 1—Probenecid 5.0 mg/kg; Group 2—Probenecid 0.5 mg/kg; Group 3—Probenecid 0.05 mg/kg; Group 4—Positive Control—KN93 (10 mg/kg); Group 5—Negative Control (PBS); Group 6—Probenecid 5.0 mg/kg no infection (gene silencing only).
# (§3) Detection of virus replication. qRT-PCR and TCID50 of the lungs. The lungs of infected animals were longitudinally sectioned. One half of the lung was into TRizol (Invitrogen, Carlsbad, Calif., USA) for isolating total RNA. Another half lung was into MEM/without serum media for TCIT50. The qRT-PCR performance for both of virus replication and the gene expression was like in vitro.
# [14] = test system: A/WSN/33; test: as above; assay type: in vivo, BALB/c mice
# Protocol: as §1, §2, §3
# [15] = test system: A549 cells
# [16] = in vivo; cited from earlier work
smiles,measurement,setting,value
COc1ccc(S(=O)(=O)N(CCO)c2ccccc2CN(C)C/C=C/c2ccc(Cl)cc2)cc1 [KN-93],inhibition at 250 µM,"[1]; Influenza A virus, WSN, BEAS-2B, read-out: inhibition of virus replication",> 80%
same,dose dependence of inhibition of virus replication,"[1]; pretreatment 1 h, […]",inhibited influenza replication in a dose-dependent manner
same,number of NP-staining cells compared to control,[2],not perceptibly affected
same,lung influenza M gene copy number vs control,[3]; 24 h before infection,significantly (p<0.05) shielded
same,lung influenza M gene copy number vs control,[3]; 48 h before infection,not statistically significant
same,lung infectious virus (TCID50) vs control,[4]; 24 h before infection,significantly (p<0.05) different than control
same,lung infectious virus (TCID50) vs control,[4]; 48 h before infection,not statistically significant
same,reduction of lung virus titers vs control,[4]; treatment at 24 h or 48 hpi,no significant (p<0.05) effect
same,CAMKIIB gene expression in lungs,[5],down-modulation
same,cell cytotoxicity,[6],insignificant
same,cell cytotoxicity,[6]; 250 uM,negligible
same,cell cytotoxicity compared to the control,[6]; 500 uM (highest drug concentration),20-30%
same,toxicity in mice treated with drugs only,[7],no apparent toxicity
same,influenza viral replication in MDCK cells,[8],inhibits A/WSN/33 influenza viral replication in a dose-dependent manner
"CCCN(CCC)S(=O)(=O)c1ccc(C(=O)O)cc1 [Probenecid, 4-(dipropylsulfamoyl)benzoic acid]",SLC22A8 gene expression,[9],effectively reduce SLC22A8 gene expression
same,influenza virus replication,[10],refractory to influenza virus replication
same,influenza virus replication,[11],refractory to influenza virus replication
same,SLC22A8 gene expression,[12],effectively reduce SLC22A8 gene expression
same,influenza virus replication in lungs,[13],refractory to influenza virus replication
same,efficacy relative to Tamiflu,"[14]; 10 mg/kg Probenecid, -24 or +24 h",as effective as Tamiflu treatment
same,influenza virus replication in lungs,"[14]; mice treated prophylactically or therapeutically, varying concentrations",refractory to influenza virus replication
same,toxicity,[15],without causing toxicity
same,increase of blood concentrations of Tamiflu (oseltamivir),[16],more than double

# Reference: patent US20140121237A1, “Methods for Inhibiting Virus Replication” (priority 2011, published 2014)
